Publication PMC7838189, “Natural podophyllotoxin analog 4DPG attenuates EMT and colorectal cancer progression via activation of checkpoint kinase 2” (Cell Death Discovery, 2021)
Values after ≈ are worked out from the molar mass of the structure shown.

How the values were obtained:
SW-620/5-FU-R cells = assay: In situ fluorescent gelatin degradation assay (invadopodia); format: cell-based; conditions: 48 h, vs vehicle
Text: 4DPG, a podophyllotoxin class of natural product anticancer compound (Supplementary Fig. S2A) has been recently described by our research group for its potent antitumor and anti-metastatic properties against aggressive cancers[31],[32]. Further, 4DPG augments phosphorylation and activation of Chk2 (Thr68) leading to suppression of EMT and invasiveness of p53-defective cancer cells. To investigate the effect of 4DPG on phosphorylation and expression levels of Chk2 in HCT-116/5-FU-R, SW-620/5-FU-R, and HT-29/5-FU-R cells, we treated these cells for 48 h with increasing concentrations of the compound, and whole-cell lysates were subjected to western blotting analysis. […] To determine the effect of 4DPG on the invasion abilities of these 5-FU-R cells, we performed in situ fluorescent gelatin degradation assay following our pre-standardized protocol[31],[37]. In physiological conditions, this assay mimics the extracellular matrix degradation by aggressive tumor cells undergoing invasion–metastasis process.
Fig. 2 4DPG activates Chk2 and attenuates EMT in 5-FU-R CRC cells. […] G Quantification of the area of degradation through Image J software. n = 3, error bars, mean ± SD; ***P < 0.001. […]

Solubility determination = format: physicochemical
Experimental: (§1) Solubility and distribution coefficient are among the major physicochemical properties of a drug that greatly determine its absorption in physiological compartments. […] The distribution coefficient (logD, pH 7.4) of 4DPG was determined to be 0.815 ± 0.19, which indicates the slightly lipophilic nature of the molecule. For administration to animals, the appropriate quantity of 4DPG was formulated in the pre-calculated volume of saline with the help of a solubilizer (Tween-80). Next, to assess the hemocompatibility of 4DPG and establish if the compound could be considered safe for intravenous (i.v.) administration, we performed in vitro hemolysis assay by incubating the RBCs with increasing concentrations of the molecule.
(§2) The distribution coefficient, solubility, and hemocompatibility of 4DPG was determined adopting our previously described protocol[37],[40]. For hemolysis assay, increasing concentrations (5, 10, and 20 µg/mL) of 4DPG were employed. Distilled water (DW) and PBS were considered as […].

[1] = Distribution coefficient determination; format: physicochemical; conditions: pH 7.4
Experimental: as §1, §2

[2] = test system: orthotopic rat colorectal carcinoma; conditions: 25 mg/kg thrice a week for 3 weeks
Text: To examine the antitumor and anti-metastatic efficacy of 4DPG in vivo, we employed a carcinogen-induced orthotopic rat colorectal carcinoma model. […] The schematic representation briefly describes the steps involved in the generation of orthotopic colorectal tumors along with the treatment strategy and further analysis (details in “Materials and methods”). The animals were euthanized at the end of the experiment and evaluated for tumor and metastatic burden (Fig. 4A). […] To validate whether our in vitro observations on mechanistic inhibition of EMT and invasion by 4DPG hold true in vivo, we performed immunohistochemical analysis of the tumor tissues acquired from the saline and 4DPG-treated animal groups.
A Model depicting the procedure adopted for generating the carcinogen-induced orthotopic rat CRC model, treatment strategies of 4DPG, evaluation of tumor burden, and further biochemical analysis. B Representative images of large bowel showing the colorectal tumor growth in saline, 5-FU (25 mg/kg), and 4DPG (25 mg/kg) treated groups of animals. C, D Quantification of tumor volume and number of polyps per rat in above groups of animals. n = 6 rats per group, error bars: mean ± SD; *P < 0.05, **P < 0.01, ***P < 0.001. E Representative images of the lungs dissected from the above groups of animals showing metastatic tumor burden. Orange arrows indicating bumps of secondary tumors over each lobe of lungs. F, G Quantification of a number of macroscopic secondary tumors over the lung tissues and lung weight in the above groups of animals. n = 6 rats per group, error bars, mean ± SD; **P < 0.01, ***P < 0.001. […] Scale bar: 50 µm. I Western blots depicting expression of p-Chk2 (Thr68), Chk2, p53, p-Vimentin (Ser38), and Vimentin in tumor tissues obtained from saline- and 4DPG-treated groups of animals. β-Actin expression was taken as endogenous loading control. J Densitometry analysis of the above western blot bands portraying relative protein expression of the markers presented. n = 3, error bars: mean ± SD; **P < 0.01, ***P < 0.001.
Animal studies were performed following the guidelines approved by Institutional Animal Ethics Committee (IAEC No. 51/02/15) of CSIR-Indian Institute of Integrative Medicine, Jammu, India. The experiment was performed according to our standardized protocol described previously with necessary modifications. Five-weeks-old healthy male Wistar rats (body weight 150–200 g) were maintained in aseptic condition with free access to food and water. Animals were randomized into three groups, with six animals per group. All the rats received intrarectal instillation of 0.5 mL of freshly prepared 0.4% aqueous solution of N-methyl-N-nitrosourea (MNU) thrice a week for 3 weeks, for the orthotopic induction of colorectal tumors. The solution was injected using sterile syringe with attached 8-cm long rubber catheter tube inserted two-thirds into the colon lumen through anal orifice, as described previously. The animals were kept under continuous monitoring, and the body weight was measured once per week. Following 22 weeks after the initiation of MNU administration, treatment regimens were started by administering 5-FU (25 mg/kg), and 4DPG (25 mg/kg) thrice a week for 3 weeks. The control and treatment groups of animals were dosed separately by three independent investigators and the outcomes were assessed by a fourth investigator blind about the dosing process and treatment regimen.

COc1cc([C@@H]2c3cc4c(cc3C[C@H]3COC(=O)[C@@H]32)OCO4)cc(OC)c1O[C@@H]1O[C@H](CO)[C@@H](O)[C@H](O)[C@H]1O [4DPG, 4′-demethyl-deoxypodophyllotoxin glucoside]
invadopodia formation and area of degradation over the gelatin matrix (SW-620/5-FU-R cells): significantly reduced | solubility (Solubility determination; simulated gastric fluid (SGF, pH 1.2)): 539.38 ± 91 µg/mL (≈ 987 µM) | solubility (Solubility determination; simulated intestinal fluid (SIF, pH 6.8)): 712.92 ± 172 µg/mL (≈ 1300 µM) | distribution coefficient (logD) [1]: 0.815 ± 0.19 | lung metastases [2]: strongly prevented the development of lung metastases | drug-related toxicity/adverse effects ([2]; until end of experiment): without any drug-related toxicity/adverse effects | average number of polyps ([2]; control group 16): 3 | mean tumor volume ([2]; saline control 820.6 mm^3): 116.8 mm^3
